From US9969700B2, “P2X4 receptor antagonist” (NIPPON CHEMIPHAR CO., LTD, priority 2012, dated 2018)
Where a name gives a salt, the structure may show the parent alone.

Test system: Neurogenic pain model (modified Chung model)
Test: Analgesic activity, von Frey filament test in neurogenic pain model (modified Chung model)
Format: in vivo
Details: rats, oral administration of 50 mg/kg, day 9 after the modified Chung operation; significant difference compared with vehicle group
Experimental: Neurogenic pain model (modified Chung model) was prepared according to the description of Non-patent document 9. More specifically, under isoflurane anesthesia, back hair of rats was extensively shaved, the shaved parts were wiped with rubbing alcohol, the rate were fixed on an incubator in the abdominal position, and the skins were cut and opened along the dorsal median line on the upper and lower sides of the sacroiliac bone. The left lateral paravertebral muscle was separated in the sacral region, and then the ligament was separated. The sacroiliae rim and the upper part thereof were cut and opened along the pyramid, the L5 nerve was ligated, and the nerve was cut on the peripheral side. […]
The pain threshold value (paw withdrawal threshold (g)) was calculated according to the up down method by stimulating the sole with a von Frey filament (Stoelting Co., TOUCH-TEST SENSORY EVALUATOR) and determining presence or absence of withdrawal response.
As the von Frey filaments, seven filaments giving different stimulation strengths were used. The 50% threshold value was calculated according to the up down method by referring to the method of Chaplan et al. (Chaplan S R, Bach F W, Pogrel J W, Chung J M, Yaksh T L.: Quantitative assessment of tactile allodynia in the rat paw, J. Neurosci. Methods, 53:55-63 (1994). […]

Q: With `O=C1CC(=O)N(c2ccc(NC(=O)c3c(O)cccc3Cl)cc2)c2ccc3ccccc3c2N1` [Example 118, 5-[4-(6-Chloro-2-hydroxybenzoylamino)phenyl]-1H-naphtho[1,2-b][1,4]diazepine-2,4(3H,5H)-dione] as the molecule, how does the “pain threshold value (paw withdrawal threshold) of the diseased limb” value read?
A: The value was “raised the pain threshold value of the diseased limb”.

Q: With `O=C1CC(=O)N(c2ccc(NC(=O)c3ccccc3I)cc2)c2ccc3ccccc3c2N1` [Example 48, 5-[4-(2-Iodobenozoylamino)phenyl]-1H-naphtho[1,2-b][1,4]diazepine-2,4(3H,5H)-dione] as the molecule, how does the “pain threshold value (paw withdrawal threshold) of the diseased limb” value read?
A: Its value is “raised the pain threshold value of the diseased limb”.

Biological target: human P2X4 receptor (Homo sapiens (Human), UniProt Q99571)
Test: P2X4 receptor antagonist activity (ATP-induced intracellular calcium, Fura-2 AM)
Format: cell-based
Details: 1321N1 cells stably expressing human P2X4 receptor; test substance 15 minutes before ATP; read-out: Inhibitory activity IC50

Chain of human P2X4 receptor (Q99571 whole entry): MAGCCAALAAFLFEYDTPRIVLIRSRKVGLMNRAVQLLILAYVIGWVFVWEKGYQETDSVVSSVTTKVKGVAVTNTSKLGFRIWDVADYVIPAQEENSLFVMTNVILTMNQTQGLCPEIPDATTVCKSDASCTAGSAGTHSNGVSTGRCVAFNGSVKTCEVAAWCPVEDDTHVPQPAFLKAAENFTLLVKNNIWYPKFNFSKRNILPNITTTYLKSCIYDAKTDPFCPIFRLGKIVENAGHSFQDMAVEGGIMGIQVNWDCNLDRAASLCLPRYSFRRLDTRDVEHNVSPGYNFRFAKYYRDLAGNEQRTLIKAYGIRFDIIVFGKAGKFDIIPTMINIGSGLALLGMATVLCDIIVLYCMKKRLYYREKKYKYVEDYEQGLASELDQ

Q: With `O=C1CC(=O)N(c2ccc(NC(=O)c3cccnc3Cl)cc2)c2ccc3ccccc3c2N1` [Example 209, 5-[4-[(2-Chloropyridin-3-yl)carbonylamino]phenyl]-1H-naphtho[1,2-b][1,4]diazepine-2,4(3H,5H)-dione] as the molecule, how does the IC50 read?
A: Its IC50 is 940 nM.

Q: How did the IC50 turn out when `Cc1ncccc1C(=O)Nc1ccc(N2C(=O)CC(=O)Nc3c2ccc2ccccc32)cc1` [Example 208, 5-[4-[(2-Methylpyridin-3-yl)carbonylamino]phenyl]-1H-naphtho[1,2-b][1,4]diazepine-2,4(3H,5H)-dione hydrochloride] was run?
A: The IC50 was 1300 nM.

Q: With `O=C(Cc1ccccc1Cl)Nc1ccc(N2C(=O)CC(=O)Nc3c2ccc2ccccc32)cc1` [Example 13, 5-[4-[(2-Chlorophenylacetyl)amino]phenyl]-1H-naphtho[1,2-b][1,4]diazepine-2,4(3H,5H)-dione] as the molecule, how does the IC50 read?
A: The IC50 was 540 nM.

Q: How did the IC50 turn out when `CN(c1ccc(N2C(=O)CC(=O)Nc3c2ccc2c3CCCC2)cc1)S(=O)(=O)Cc1ccccc1Cl` [Example 196, 1-(2-Chlorophenyl)-N-[4-(2,4-dioxo-1,2,3,4,8,9,10,11-octahydronaphtho[1,2-b][1,4]diazepin-5-yl)phenyl]-N-methylmethanesulfonamide] was run?
A: The IC50 was 970 nM.

Q: `O=C1CC(=O)N(c2ccc(NC(=O)c3c(O)cccc3Cl)cc2)c2ccc3ccccc3c2N1` [Example 118, 5-[4-(6-Chloro-2-hydroxybenzoylamino)phenyl]-1H-naphtho[1,2-b][1,4]diazepine-2,4(3H,5H)-dione] was tested. Which IC50 did it give?
A: Its IC50 is 1100 nM.

Q: With `O=C1CC(=O)N(c2ccc(NC(=O)Nc3ccccc3)cc2)c2ccc3ccccc3c2N1` [Example 20, 1-[4-(2,4-Dioxo-1,2,3,4-tetrahydronaphtho[1,2-b][1,4]diazepin-5-yl)phenyl]-3-phenylurea] as the molecule, how does the IC50 read?
A: Its IC50 is 1200 nM.

Q: For `O=C(COc1ccccn1)Nc1ccc(N2C(=O)CC(=O)Nc3c2ccc2ccccc32)cc1` [Example 210, 5-[4-[2-[(Pyridin-2-yl)oxy]acetylamino]phenyl]-1H-naphtho[1,2-b][1,4]diazepine-2,4(3H,5H)-dione], which IC50 is on record?
A: Its IC50 is 1400 nM.

Q: Which IC50 does the source give for `O=C1CN=C(c2ccc(NS(=O)(=O)Cc3ccccc3Cl)cc2)c2ccc3ccccc3c2N1` [Example 197, 1-(2-Chlorophenyl)-N-[4-(2-oxo-2,3-dihydro-1H-naphtho[1,2-e][1,4]diazepin-5-yl)phenyl]methanesulfonamide] here?
A: Its IC50 is 440 nM.
